Read-outs that look alike come from different tables or passages of the source.

The subject of data set [1] is P-gp (MDR1). The data set is described as follows: MDR1-MDCK bidirectional permeability assay. Conditions: dog, MDCK-MDR1, pH 7.4, Efflux ratio.
Protocol: (§1) A bidirectional permeability assay using Madin Darby canine kidney cells expressing multi-drug resistance gene 1 (MDCK-MDR1) is routinely used to evaluate discovery compounds' BBB permeability and drug efflux toward the advancement of discovery compounds with brain penetration.
(§2) MDCK-MDR1 Cells (NIH cell line) were obtained from the National Institutes of Health. […] Cell culture medium was replaced every other day, beginning no later than 24 hours after the initial plating. […] The dosing solution concentration was 1 μM for the test article in the assay buffer. Cell monolayers were dosed on the apical side (A-to-B) or basolateral side (B-to-A) and incubated at 37° C. under an atmosphere of 5% CO2 in a humidified incubator. Samples were taken from the donor and receiver chambers at 120 minutes. Each determination was performed in duplicate. After the 120 min transport period, the flux of lucifer yellow was also measured for each monolayer to ensure no damage was inflicted to the cell monolayers during the transport period. All samples were assayed by LC-MS/MS (Waters XSelect HSS T3 C18, 2.5 m, 2.1×50 mm) using electrospray ionization with 0.1% formic acid in water (mobile phase A) and 0.1% formic acid in acetonitrile (mobile phase B) as mobile phases. The apparent permeability coefficient (Papp), in units of cm per second, was calculated for MDCK-MDR1 Cells (NIH cell line) drug transport assays using the following equation:
(§3) Where VA is the volume (in mL) in the acceptor well, Area is the surface area of the membrane (0.143 cm^2 for Transwell-96 Well Permeable Supports), and time is the total transport time in seconds.
(§4) The leakage of Lucifer Yellow (LY), in unit of percentage (%), can be calculated using the following equation:
(§5) LY leakage of <1% is acceptable to indicate the well-qualified MDCK-MDR1(NIH) monolayer.
Data set [2] relates to MDCK-MDR1 cells (P-gp, MDR1). The data set is described as follows: MDR1-MDCK bidirectional permeability assay. Conditions: A to B.
Protocol: as §1, §2, §3, §4, §5
A short description of data set [3]: Plasma protein binding (PPB), mouse. It counts as in vitro ADME.
Data set [4] can be described thus: Brain tissue binding, mouse. It counts as in vitro ADME.
Data set [5] in a line: Brain exposure assay in mice (brain-to-plasma ratio after oral administration). It counts as in vivo. Conditions: mouse, 100 mg/kg; for concentration at 6 h / Kp at 2 h / Kp uu at 2 h / Kp at 6 h / Kp uu at 6 h: male, C57BL/6JNIFDC, oral; for Kp at 2 h / Kp at 6 h: total brain-plasma concentration ratio; for Kp uu at 2 h / Kp uu at 6 h: unbound brain-to-plasma partition coefficient; for Kp at 2 h / Kp uu at 2 h / Cbrain, free (μM) / Cbrain, total (μM) / Cplasma, free (μM) / Cplasma, total (μM): 2 hr. How it is done: This protocol was used to determine the brain-to-plasma ratio in vivo in mice post oral administration of test compounds. Mice (C57BL/6JNIFDC, male, non-fasted, 18-30 g body weight, 3 mice for each timepoint) were dosed orally at 100 mg/kg (10 mg test compound/mL formulation, 10 mL dosing volume/kg) with plasma and brain tissues obtained at 2- and 6-hours post-administration. The oral dosing formulation composition used was 10% N,N-dimethylacetamide:20% propylene glycol:70% of 40% aqueous 2-hydroxypropyl-β-cyclodextrin.
For the isolation of mouse plasma from dosed animals, approximately 0.3 mL blood was collected by orbital sinus bleed and centrifuged (4000 g, 5 minutes, 4° C.). The plasma samples were stored frozen at −75±15° C. until further processing.
For the isolation of brain tissue from dosed animals, whole brain tissues were collected from euthanized and fully exsanguinated mice. The tissues were quickly rinsed with distilled water, dried with absorbent paper, followed by rapid freezing on dry ice and then storage at −75±15° C. until further processing. Brain tissue samples obtained from frozen whole brain were weighed and the samples homogenized using three equivalents of distilled water (3 mL per gram of brain tissue).
Standard and quality control samples were prepared by adding 3 μL of the test compound dimethyl sulfoxide (DMSO) stock solutions to blank plasma (30 μL) and blank brain homogenate aliquots (30 μL). Standard curves for brain and plasma were generated over a 1 to 1,000 ng/g test compound concentration range. For the extraction of test compound from plasma and brain tissue homogenate samples, a solution of acetonitrile containing internal standard ([…]) was added to 30 μL of samples with added 3 μL of DMSO. The samples then were vortex-mixed followed by centrifugation at 4000 rpm (4° C., 15 minutes). The resultant supernatants were diluted 5-fold with distilled water. Finally, 10 μL of the diluted supernatant was injected onto an LC-MS/MS instrument for quantitative analysis of test compound.
The brain-to-plasma ratio was calculated by the relationship: Brain-to-plasma ratio=Cbrain/Cplasma; where Cb is the concentration in brain tissue and Cp is the concentration in plasma at the corresponding timepoint.
Kp is the total brain-plasma concentration ratio; Kp=Cbrain/Cplasma.
Kp, uu is the unbound brain-to-plasma partition coefficient (Kp,uu,brain). It is a measure of the extent of the distribution equilibrium of a compound between the unbound (free) fractions in brain and in blood plasma; Kp, uu brain=Cu, brain/Cu, plasma.

The target of the next data set is human NAMPT (Homo sapiens (Human), UniProt P43490). Kind of data set: NMN fluorescence biochemical assay (human recombinant NAMPT enzyme assay). The procedure, abridged:
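NMN formed was detected by fluorescence (Ex/Em 355/460 nm) after acetophenone, KOH and formic acid derivatization. The cell-free reaction ran 60 min at ambient temperature with 6 nM human NAMPT, 150 μM nicotinamide, 20 μM PRPP, 2.5 mM ATP, pH 7.2 HEPES, and compound dose responses.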

For data set [6], the system named is MDCK-MDR1 cells (P-gp, MDR1). Conditions: dog, MDCK-MDR1, 120 min, 1 μM, pH 7.4.
Protocol: as §1, §2, §3, §4, §5
Data set [7] relates to P-gp (MDR1). Kind of data set: in vitro. Conditions: dog, MDCK-MDR1, pH 7.4, Efflux ratio.
Protocol: as §1, §2, §3, §4, §5
Setting [8] is: plasma, read-out: Cplasma, free.
[9] abbreviates: plasma, read-out: Cplasma, total.

Sequence of human NAMPT (P43490 whole entry): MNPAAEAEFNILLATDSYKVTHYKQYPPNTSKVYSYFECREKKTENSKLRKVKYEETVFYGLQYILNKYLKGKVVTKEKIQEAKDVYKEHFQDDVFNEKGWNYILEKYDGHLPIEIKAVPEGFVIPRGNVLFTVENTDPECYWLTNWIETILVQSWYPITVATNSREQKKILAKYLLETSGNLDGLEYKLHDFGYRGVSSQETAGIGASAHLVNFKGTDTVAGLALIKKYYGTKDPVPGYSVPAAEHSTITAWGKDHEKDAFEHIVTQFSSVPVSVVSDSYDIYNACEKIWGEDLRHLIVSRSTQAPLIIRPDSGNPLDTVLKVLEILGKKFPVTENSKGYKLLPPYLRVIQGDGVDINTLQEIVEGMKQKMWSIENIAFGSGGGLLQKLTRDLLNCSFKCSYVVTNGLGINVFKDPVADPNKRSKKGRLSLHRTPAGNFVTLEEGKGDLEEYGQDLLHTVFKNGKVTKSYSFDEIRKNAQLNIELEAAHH

As to `CN(C)S(=O)(=O)N1CCC(Cc2ccc(NC(=O)OCc3cnco3)cc2)CC1` [Compound 27, oxazol-5-ylmethyl (4-((1-(N,N-dimethylsulfamoyl)piperidin-4-yl)methyl)phenyl)carbamate], the efflux ratio (as a rule, a quotient of directional permeabilities that is used to spot active efflux) at 120 min, 1 μM with P-gp (MDR1) [1] was found to be 1.99. In data set [2], this molecule came in with a PappAB of 7.68. The fraction unbound – broadly, the share of the substance not bound to proteins or other matrix – in data set [3] (mouse, plasma) was found to be 0.037. For the same molecule, the free fraction (fraction unbound) in data set [4] (mouse, brain tissue) amounted to 0.053. The concentration at 6 h in data set [5] (brain, read-out: Cbrain, free) was 70 nM. In addition, the concentration at 6 h in data set [5] (brain, read-out: Cbrain, total) was 1500 nM. For the same molecule, the concentration at 6 h in data set [5] (setting [8]) worked out at 220 nM. In addition, the concentration at 6 h in data set [5] (setting [9]) came out at 5900 nM. In data set [5], the partition ratio (Kp) (usually tissue or fluid exposure divided by exposure in the circulation) at 2 h turned out to be 0.29, the Kp uu at 2 h was 0.41, the partition ratio (Kp) at 6 h was 0.25 and the Kp uu at 6 h was 0.32. Also, in data set [5], the “Cbrain, free (μM)” value is 0.64, μM; the “Cbrain, total (μM)” value is given as 12.0, μM; the “Cplasma, free (μM)” value was 1.55, μM; the “Cplasma, total (μM)” value is 42.1, μM. Also, at human NAMPT, the “AC1.4 Human” value was determined as 0.36 µM and the EC50 – broadly, the concentration at which the effect is half-maximal – came out at 5.25 µM.
As for `O=C(Nc1ccc(COC2CCN(C3COC3)CC2)cc1)OCc1ccc(Cl)cc1` [Compound 232, 4-chlorobenzyl (4-(((1-(oxetan-3-yl)piperidin-4-yl)oxy)methyl)phenyl)carbamate], the efflux ratio at 120 min, 1 μM in the data set with P-gp (MDR1) [1] came to 1.5. The PappAB in data set [2] turned out to be 9.8. On human NAMPT, the “AC1.4 Human” value is 2.17 µM and the half-maximal effective concentration (EC50) came out at 20.8 µM.
`CN(C)C(=O)N1CCC[C@H](c2ccc(NC(=O)OCc3cnco3)cc2)C1` [Compound 376, oxazol-5-ylmethyl (R)-(4-(1-(dimethylcarbamoyl)piperidin-3-yl)phenyl)carbamate]: the efflux ratio at 120 min, 1 μM with P-gp (MDR1) [1] was found to be 4.11. The PappAB in data set [2] was 8.06. In addition, the fraction unbound in data set [3] (mouse, plasma) came to 0.024. For the same molecule, the fraction unbound in data set [4] (mouse, brain tissue) was determined as 0.132. The concentration at 6 h in data set [5] (brain, read-out: Cbrain, free) came to 1000 nM. The concentration at 6 h in data set [5] (brain, read-out: Cbrain, total) turned out to be 7500 nM. Moreover, in data set [5] (setting [8]), the concentration at 6 h came to 1090 nM. For the same molecule, the concentration at 6 h in data set [5] (setting [9]) amounted to 45500 nM. Besides, in data set [5], the Kp at 2 h worked out at 0.16, the Kp uu at 2 h is 0.89, the concentration ratio (Kp) at 6 h stood at 0.16 and the Kp uu at 6 h came out at 0.92. For the same molecule, in data set [5], the “Cbrain, free (μM)” value is 2.2, μM; the “Cbrain, total (μM)” value was 16.5, μM; the “Cplasma, free (μM)” value is on record as 2.48, μM; the “Cplasma, total (μM)” value is given as 104, μM. In addition, at human NAMPT, the “AC1.4 Human” value came to 0.06 µM and the EC50 is 2.02 µM.
The molecule `O=C(Nc1ccc(CC2CC3CCC(C2)N3S(=O)(=O)C2CC2)cc1)OCc1cnco1` (centres unmarked) [Compound 395, oxazol-5-ylmethyl (4-((8-(cyclopropylsulfonyl)-8-azabicyclo[3.2.1]octan-3-yl)methyl)phenyl)carbamate] had a PappAB in data set [6] of 2.81. Besides, the efflux ratio at 120 min, 1 μM in the data set on P-gp (MDR1) [7] worked out at 5.02. Moreover, on human NAMPT, the “AC1.4 Human” value is 0.12 µM and the 50% effective concentration (EC50) worked out at 3.2 µM.
`CN(C)S(=O)(=O)N1CC2(CC(Cc3ccc(NC(=O)OCc4cnco4)cc3F)C2)C1` [Compound 399, oxazol-5-ylmethyl (4-((2-(N,N-dimethylsulfamoyl)-2-azaspiro[3.3]heptan-6-yl)methyl)-3-fluorophenyl)carbamate] yielded a fraction unbound in data set [3] of 0.01. In data set [4], this molecule yielded a fraction unbound of 0.012. Besides, the concentration at 6 h in data set [5] (brain, read-out: Cbrain, free) is 140 nM. For the same molecule, the concentration at 6 h in data set [5] (brain, read-out: Cbrain, total) was determined as 11500 nM. Also, in data set [5] (setting [8]), the concentration at 6 h is 270 nM. The concentration at 6 h in data set [5] (setting [9]) came to 26800 nM. Also, in data set [5], the partition ratio (Kp) at 2 h was found to be 0.44, the Kp uu at 2 h was 0.52, the concentration ratio (Kp) at 6 h was 0.43 and the Kp uu at 6 h came out at 0.52. In data set [5], the “Cbrain, free (μM)” value was 0.23, μM; the “Cbrain, total (μM)” value was 19.5, μM; the “Cplasma, free (μM)” value is on record as 0.44, μM; the “Cplasma, total (μM)” value is reported as 44, μM. Moreover, on human NAMPT, the “AC1.4 Human” value came to 0.15 µM and the EC50 was determined as 3.88 µM.
`CN(C)C(=O)N1CC2(CC(c3ccc(NC(=O)OCc4cnco4)cc3F)C2)C1` [Compound 400, oxazol-5-ylmethyl (4-(2-(dimethylcarbamoyl)-2-azaspiro[3.3]heptan-6-yl)-3-fluorophenyl)carbamate] displayed a fraction unbound in data set [3] of 0.043. In addition, the free fraction (fraction unbound) in data set [4] was found to be 0.054. Moreover, the concentration at 6 h in data set [5] (brain, read-out: Cbrain, free) stood at 80 nM. Moreover, the concentration at 6 h in data set [5] (brain, read-out: Cbrain, total) came out at 1400 nM. Further, the concentration at 6 h in data set [5] (setting [8]) amounted to 140 nM. Also, in data set [5] (setting [9]), the concentration at 6 h came to 3100 nM. Besides, in data set [5], the Kp at 2 h stood at 0.43, the Kp uu at 2 h stood at 0.53, the Kp at 6 h was determined as 0.43 and the Kp uu at 6 h was 0.57. Moreover, in data set [5], the “Cbrain, free (μM)” value is given as 0.31, μM; the “Cbrain, total (μM)” value was 5.8, μM; the “Cplasma, free (μM)” value was 0.58, μM; the “Cplasma, total (μM)” value is given as 13.5, μM. For the same molecule, at human NAMPT, the “AC1.4 Human” value came to 0.11 µM and the concentration giving a half-maximal response (EC50) stood at 15.4 µM.
`CN(C)C(=O)N1CCC(Cc2ccc(NC(=O)OCc3cnco3)cc2F)CC1` [Compound 449, oxazol-5-ylmethyl (4-((1-(dimethylcarbamoyl)piperidin-4-yl)methyl)-3-fluorophenyl)carbamate]: the efflux ratio at 120 min, 1 μM in the data set on P-gp (MDR1) [1] came to 5.74. In data set [2], this molecule yielded a PappAB of 3.53. For the same molecule, the unbound share (fraction unbound) in data set [3] (mouse, plasma) was found to be 0.022. This molecule gave a free fraction (fraction unbound) in data set [4] (mouse, brain tissue) of 0.033. Moreover, in data set [5] (brain, read-out: Cbrain, free), the concentration at 6 h amounted to 280 nM. Moreover, the concentration at 6 h in data set [5] (brain, read-out: Cbrain, total) was 8400 nM. The concentration at 6 h in data set [5] (setting [8]) is 390 nM. Moreover, the concentration at 6 h in data set [5] (setting [9]) came to 18000 nM. In data set [5], the Kp at 2 h amounted to 0.42, the Kp uu at 2 h came to 0.64, the concentration ratio (Kp) at 6 h came to 0.47 and the Kp uu at 6 h was 0.72. In data set [5], the “Cbrain, free (μM)” value is given as 0.83, μM; the “Cbrain, total (μM)” value is 25.0, μM; the “Cplasma, free (μM)” value is 1.30, μM; the “Cplasma, total (μM)” value is reported as 59.4, μM. For the same molecule, at human NAMPT, the “AC1.4 Human” value stood at 0.10 µM and the EC50 was 2.93 µM.
Take `CC(C)S(=O)(=O)N1CCC(Cc2ccc(NC(=O)OCc3cnco3)cc2)CC1` [Compound 464, oxazol-5-ylmethyl (4-((1-(isopropylsulfonyl)piperidin-4-yl)methyl)phenyl)carbamate]: in the data set on P-gp (MDR1) [1], the efflux ratio at 120 min, 1 μM amounted to 2.19. The same molecule gave a PappAB in data set [2] of 9.11. Further, on human NAMPT, the “AC1.4 Human” value came out at 0.14 µM and the EC50 was 3.07 µM.

Source of the values: patent US20240279215A1 (Cytokinetics, Incorporated, priority 2022, published 2024).
